Experimental findings from patent US9073940B2, “Tricyclic pyrazol amine derivatives” (MERCK SERONO SA, priority 2009, dated 2015) are described below.

Each structure is given as a SMILES string.

This test relates to 4 PI3K isoforms (Human recombinant GST-PI3K). The test is described as follows: PI3K scintillation proximity assay, best IC50 obtained with the four isoforms (alpha, beta, delta, gamma). In kind it is biochemical. The settings on record: best IC50 obtained with the four isoforms of PI3K; read-out: Best potency measured on the 4 PI3K isoforms. For orientation: Scintillation proximity formats need no separation of bound from free tracer.
For `O=C(c1nn(C2CCCN(CCC3CCOCC3)C2)c2c1CS(=O)(=O)c1ccccc1-2)N1CCOCC1` (centres unmarked) [Example 224, 3-(Morpholin-4-ylcarbonyl)-1-{1-[2-(tetrahydro-2H-pyran-4-yl)ethyl]piperidin-3-yl)-1,4-dihydrothiochromeno[4,3-c]pyrazole 5,5-dioxide], the IC50 is 0.054 µM.

Turning to `CC1COCCN1Cc1ccc(-n2nc(C(=O)N3CCOCC3)c3c2-c2ccccc2S(=O)(=O)C3)cc1` (centres unmarked) [Example 357, 1-{4-[(3-Methylmorpholin-4-yl)methyl]phenyl}-3-(morpholin-4-ylcarbonyl)-1,4-dihydrothiochromeno[4,3-c]pyrazole 5,5-dioxide], the IC50 amounted to 0.18 µM.

Consider `O=C(c1nn(-c2cccnc2)c2c1CS(=O)(=O)c1ccccc1-2)N1CCOCC1` [Example 88, 3-(Morpholin-4-ylcarbonyl)-1-pyridin-3-yl-1,4-dihydrothiochromeno[4,3-c]pyrazole 5,5-dioxide], for which the IC50 was 1.13 µM.

For `COC1CCN(Cc2cccc(-n3nc(C(=O)N4CCOCC4)c4c3-c3ccccc3S(=O)(=O)C4)c2)C1` (centres unmarked) [Example 266, 1-{3-[(3-Methoxypyrrolidin-1-yl)methyl]phenyl}-3-(morpholin-4-ylcarbonyl)-1,4-dihydrothiochromeno[4,3-c]pyrazole 5,5-dioxide], the IC50 turned out to be 0.35 µM.

Consider `COc1ccc(-n2nc(C(=O)N3CCOCC3)c3c2-c2ccccc2S(=O)(=O)C3)cn1` [Example 131, 1-(6-Methoxypyridin-3-yl)-3-(morpholin-4-ylcarbonyl)-1,4-dihydrothiochromeno[4,3-c]pyrazole 5,5-dioxide], for which the IC50 was determined as 2.2 µM.

Regarding `O=C(c1nn(-c2ccccc2)c2c1CS(=O)(=O)c1cc(Br)ccc1-2)N1CCOCC1` [Example 122], the IC50 turned out to be 0.904 µM.

Consider `O=C(c1nn([C@@H]2CCCNC2)c2c1CS(=O)(=O)c1ccccc1-2)N1CCOCC1` (single isomer, unassigned) [Example 358], for which the IC50 stood at 3 µM.

As for `COc1ccccc1-n1nc(C(=O)N2CCOCC2)c2c1-c1ccccc1S(=O)(=O)C2` [Example 313, 1-(2-Methoxyphenyl)-3-(morpholin-4-ylcarbonyl)-1,4-dihydrothiochromeno[4,3-c]pyrazole 5,5-dioxide], the IC50 was 14.8 µM.

Consider `O=C(c1nn(-c2ccc3[nH]ncc3c2)c2c1CS(=O)(=O)c1ccccc1-2)N1CCOCC1` [Example 203, 1-(1H-Indazol-5-yl)-3-(morpholin-4-ylcarbonyl)-1,4-dihydrothiochromeno[4,3-c]pyrazole 5,5-dioxide], for which the IC50 is 1.64 µM.

For `O=C(c1nn(CCN2CCOCC2)c2c1CS(=O)(=O)c1ccccc1-2)N1CCOCC1` [Example 72, 3-(Morpholin-4-ylcarbonyl)-1-(2-morpholin-4-ylethyl)-1,4-dihydrothiochromeno[4,3-c]pyrazole 5,5-dioxide], the IC50 was found to be 0.795 µM.

In the case of `Cc1ccncc1-n1nc(C(=O)N2CCOCC2)c2c1-c1ccccc1S(=O)(=O)C2` [Example 31, 1-(4-methylpyridin-3-yl)-3-(morpholin-4-ylcarbonyl)-1,4-dihydrothiochromeno[4,3-c]pyrazole 5,5-dioxide], the IC50 was found to be 4.04 µM.

As for `O=C(c1nn([C@H]2CCCN(C3CCCOC3)C2)c2c1CS(=O)(=O)c1ncccc1-2)N1CCOCC1` (single isomer, unassigned) [Example 381, 3-(morpholin-4-ylcarbonyl)-1-[1-(tetrahydro-2H-pyran-3-yl)piperidin-3-yl]-1,4-dihydropyrazolo[3′,4′:4,5]thiopyrano[2,3-b]pyridine 5,5-dioxide], the IC50 was 0.036 µM.

As for `O=C(c1nn(-c2cccc(-c3cnn(CCN4CCOCC4)c3)c2)c2c1CS(=O)(=O)c1ccccc1-2)N1CCOCC1` [Example 188, 3-(Morpholin-4-ylcarbonyl)-1-{3-[1-(2-morpholin-4-ylethyl)-1H-pyrazol-4-yl]phenyl)-1,4-dihydrothiochromeno[4,3-c]pyrazole 5,5-dioxide], the IC50 came out at 0.338 µM.

Regarding `CC(=O)Nc1cccc2c1S(=O)(=O)Cc1c(C(=O)N3CCOCC3)nn(-c3ccccc3)c1-2` [Example 322], the IC50 turned out to be 9.88 µM.
